Data reported in ChEMBL document CHEMBL3351407, “Synthesis of novel pyrazole–thiadiazole hybrid as potential potent and selective cyclooxygenase-2 (COX-2) inhibitors” (Bioorg Med Chem Lett, 2014).

What was measured:
[1] = Cytotoxicity against HDF cells assessed as cell viability at 100 uM by MTT assay; assay type: cell-based; settings: human, read-out: Activity
[2] = target: T1, Prostaglandin G/H synthase 1 (Ovis aries, UniProt P05979); test: Inhibition of ovine COX1
T1 sequence (P05979 whole entry): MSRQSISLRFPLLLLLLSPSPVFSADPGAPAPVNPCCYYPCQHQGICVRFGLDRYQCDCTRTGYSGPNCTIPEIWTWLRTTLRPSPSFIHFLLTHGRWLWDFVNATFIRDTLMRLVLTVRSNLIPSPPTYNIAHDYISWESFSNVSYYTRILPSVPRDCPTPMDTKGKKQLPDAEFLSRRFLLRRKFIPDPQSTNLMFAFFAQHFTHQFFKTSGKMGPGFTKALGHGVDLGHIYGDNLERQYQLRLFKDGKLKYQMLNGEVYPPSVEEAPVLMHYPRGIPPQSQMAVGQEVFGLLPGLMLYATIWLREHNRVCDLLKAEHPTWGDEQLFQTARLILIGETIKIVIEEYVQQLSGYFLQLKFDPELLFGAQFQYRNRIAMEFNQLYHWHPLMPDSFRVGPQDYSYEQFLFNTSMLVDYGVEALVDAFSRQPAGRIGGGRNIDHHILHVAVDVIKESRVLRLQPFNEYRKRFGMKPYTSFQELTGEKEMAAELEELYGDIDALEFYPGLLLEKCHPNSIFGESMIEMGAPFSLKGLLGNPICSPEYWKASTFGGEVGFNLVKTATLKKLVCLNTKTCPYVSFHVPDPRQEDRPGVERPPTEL

| SMILES | viability at 100 µM [1] | IC50 [2] |
| --- | --- | --- |
| COc1ccc(-c2nn(-c3ccccc3)cc2C2SC(N(C(C)=O)c3ccccc3)=NN2C(C)=O)cc1 (stereo unspecified) | 61.4% | 64.7 µM |
| O=C1CSC(N/N=C\c2cn(-c3ccccc3)nc2-c2ccc(Cl)cc2)=N1 | 58.7% | 60.7 µM |
| COc1ccc(-c2nn(-c3ccccc3)cc2/C=N\NC(=S)Nc2ccccc2)cc1 | 52.6% | 42.3 µM |
| COc1ccc(-c2nn(-c3ccccc3)cc2/C=N\N=C2\SCC(=O)N2c2ccccc2)cc1 | 63.4% | 62.3 µM |
| O=C1CSC(N/N=C\c2cn(-c3ccccc3)nc2-c2ccc(Br)cc2)=N1 | 55.6% | 66.3 µM |
| NC(=S)N/N=C\c1cn(-c2ccccc2)nc1-c1ccc(Cl)cc1 | 71.7% | 56.3 µM |
| O=C1CS/C(=N/N=C\c2cn(-c3ccccc3)nc2-c2ccc(Cl)cc2)N1c1ccccc1 | 60.7% | 62.3 µM |
| CC(=O)NC1=NN(C(C)=O)C(c2cn(-c3ccccc3)nc2-c2ccc(Cl)cc2)S1 (stereo unspecified) | 57.7% | 70.3 µM |
| CC(=O)N(C1=NN(C(C)=O)C(c2cn(-c3ccccc3)nc2-c2ccc(Cl)cc2)S1)c1ccccc1 (stereo unspecified) | 61.7% | 70.3 µM |
| S=C(N/N=C\c1cn(-c2ccccc2)nc1-c1ccc(Br)cc1)Nc1ccccc1 | 58.7% | 65.7 µM |
| O=C1CS/C(=N/N=C\c2cn(-c3ccccc3)nc2-c2ccc(Br)cc2)N1c1ccccc1 | 57.4% | 60.5 µM |
| CC(=O)N(C1=NN(C(C)=O)C(c2cn(-c3ccccc3)nc2-c2ccc(Br)cc2)S1)c1ccccc1 (stereo unspecified) | 51.4% | 72.7 µM |
| CC(=O)NC1=NN(C(C)=O)C(c2cn(-c3ccccc3)nc2-c2ccc(Br)cc2)S1 (stereo unspecified) | 51.6% | 64.7 µM |
| COc1ccc(-c2nn(-c3ccccc3)cc2/C=N\NC2=NC(=O)CS2)cc1 | 59.7% | 71.3 µM |
| COc1ccc(-c2nn(-c3ccccc3)cc2C2SC(NC(C)=O)=NN2C(C)=O)cc1 (stereo unspecified) | 56.7% | 80.3 µM |
| S=C(N/N=C\c1cn(-c2ccccc2)nc1-c1ccc(Cl)cc1)Nc1ccccc1 | 61.7% | 64.5 µM |
| COc1ccc(-c2nn(-c3ccccc3)cc2/C=N\NC(N)=S)cc1 | 63.4% | 62.3 µM |
| NC(=S)N/N=C\c1cn(-c2ccccc2)nc1-c1ccc(Br)cc1 | 57.6% | 60.3 µM |
